The subject of one test is Kasumi-1 cells. The experiment in a line: Kasumi-1 cellular viability assay (ATP-Lite, 72 h). The conditions noted are these: Homo sapiens, ATP-Lite luminescence, % viability relative to DMSO. The test is classed as cell-based. The procedure: Kasumi-1 cell line was purchased from ATCC (ATCC® CRL2724™). Cells were isolated from the peripheral blood of a child with acute myeloid leukemia (AML FAB M2) (in 2nd relapse after bone marrow transplantation) in 1989. Most cells are round. Kasumi-1 cells are observed to grow individually or in small clumps in suspension.
Kasumi-1 cells are cultured in RPMI-1640 (Gibco A10491-01) containing 10% heat-inactivated and 0.22 μm filtered FBS (Gibco 10270-106) at a density of 3E+5 and 3E+6 viable cell/mL following the certificate of analysis.
(§1) Cellular viability assay: Kasumi-1 cells were plated (50 μL) in 96-well cell culture microplates (PS, F-Bottom black, Cellstar, Greiner 655086) at final concentration of 15000 cells/well. The compounds of the invention were dissolved in DMSO, and a titration curve was generated at 1000× final concentration. Compounds were then diluted 500× in tissue culture medium (RPMI-1640, 10% FBS). Then 50 μl of test compound were added to Kasumi-1 cells in a final DMSO concentration of 0.1%, final volume 100 μl. A gas permeable sealing membrane was applied to the plate to prevent evaporation (Breathe-Easy sealing membrane, Sigma Z380059-1PK) and cells were incubated for 72 h at 37° C., 5% CO2, 80% RH. After 72h of treatment, the plates were taken out of the incubator and left for a few minutes at room temperature. 100 μl of the reconstituted reagent ATP-Lite One Step (Perkin Elmer, 6016739) was added to each well. The plates were shaken for 2 min at 700 rpm and placed in the dark for 10 minutes at room temperature before measurement of luminescence intensity with Envision instrument. The raw data were expressed in RLU. Results were expressed in % of viability relative to DMSO control and an IC50 was calculated based on the concentration-response profile of individual compounds.

The target of test [1] is T1, recombinant METTL3/METTL14 complex (Homo sapiens, UniProt Q86U44).
T1 construct: purchased Active Motif 311970; host or cells: Sf9 cells
T1 sequence (Q86U44 whole entry): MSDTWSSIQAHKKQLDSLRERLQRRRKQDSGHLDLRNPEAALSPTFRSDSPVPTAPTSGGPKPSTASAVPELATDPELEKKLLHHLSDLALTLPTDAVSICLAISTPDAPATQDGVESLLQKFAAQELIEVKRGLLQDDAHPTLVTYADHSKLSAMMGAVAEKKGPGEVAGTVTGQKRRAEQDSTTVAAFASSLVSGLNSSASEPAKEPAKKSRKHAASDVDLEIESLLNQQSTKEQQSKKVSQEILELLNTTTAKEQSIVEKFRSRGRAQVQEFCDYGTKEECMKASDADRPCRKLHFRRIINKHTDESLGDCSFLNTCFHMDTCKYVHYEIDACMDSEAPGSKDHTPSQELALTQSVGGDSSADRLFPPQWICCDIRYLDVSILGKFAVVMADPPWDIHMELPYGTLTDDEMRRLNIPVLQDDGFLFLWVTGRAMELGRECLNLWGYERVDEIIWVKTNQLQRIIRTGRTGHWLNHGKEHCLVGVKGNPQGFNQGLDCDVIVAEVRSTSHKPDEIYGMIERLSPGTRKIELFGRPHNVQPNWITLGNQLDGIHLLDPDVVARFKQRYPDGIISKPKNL
T1 sequence (Q9HCE5 whole entry partner): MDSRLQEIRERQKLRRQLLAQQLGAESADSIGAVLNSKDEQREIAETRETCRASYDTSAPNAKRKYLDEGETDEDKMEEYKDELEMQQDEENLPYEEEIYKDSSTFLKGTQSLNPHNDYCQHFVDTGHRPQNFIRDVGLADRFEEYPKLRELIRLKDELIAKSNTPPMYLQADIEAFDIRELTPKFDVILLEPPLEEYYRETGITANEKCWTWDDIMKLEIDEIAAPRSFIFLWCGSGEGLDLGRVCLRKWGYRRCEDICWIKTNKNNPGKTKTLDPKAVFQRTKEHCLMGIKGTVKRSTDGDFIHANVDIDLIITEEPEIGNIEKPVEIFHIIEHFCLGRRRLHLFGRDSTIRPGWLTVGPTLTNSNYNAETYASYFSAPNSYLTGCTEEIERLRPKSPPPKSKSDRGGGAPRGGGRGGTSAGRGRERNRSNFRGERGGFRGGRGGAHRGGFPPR
Put plainly: METTL3/14 Scintillation Proximity Assay (SPA), RNA methyltransferase activity. The test is classed as biochemical. The conditions noted are these: 5.31 nM METTL3/14 complex, 250 nM RNA substrate, 1 μM 3H-SAM, 90 min; for compounds marked * best of the two separated forms.

A further test concerns Caov-3 cells. The experiment in a line: Caov-3 cellular viability assay (ATP-Lite, 72 h). In kind it is cell-based. Conditions: Homo sapiens, ATP-Lite luminescence, % viability relative to DMSO. How it is done:
Caov-3 cell line was purchased from ATCC (ATCC® HTB-75™). Cells were isolated from the ovary of a ovarian cancer patient.
Caov-3 cells are cultured in DMEM (ATCC 30-2002) containing 10% heat-inactivated and 0.22 μm filtered FBS (Gibco 10270-106). The cells are seeded at 2.5E+4cell/cm^2 within the recommended subcultivation ratio of 1:3 to 1:6, as stated on the certificate of analysis issues by the provider of the cells.
as §1, with “assay: Caov-3” for “assay: Kasumi-1”, “of 10000” for “of 15000”, “to Caov-3” for “to Kasumi-1”, “After 72 h” for “After 72h”, “6016739) were” for “6016739) was”

Some results are limits rather than exact numbers.

Consider `FC1(F)CC(c2ccc(N3CCC[C@@H](NCC4CC4)C3)cn2)(n2cc(-c3cncc(C4CC4)c3)nn2)C1` [Compound 315, (R)-N-(cyclopropylmethyl)-1-(6-(1-(4-(5-cyclopropylpyridin-3-yl)-1H-1,2,3-triazol-1-yl)-3,3-difluorocyclobutyl)pyridin-3-yl)piperidin-3-amine], for which the IC50 was 0.5 to 5 µM with Kasumi-1 cells, at most 0.05 µM in test [1] and 0.5 to 5 µM with Caov-3 cells.
`CC(C(=O)Nc1cncc(N2CCCC2)n1)c1ccc(N2CCC[C@@H](NCC3CCC3)C2)nn1` (stereo partly drawn) [Compound 279, 2-(6-((R)-3-((cyclobutylmethyl)amino)piperidin-1-yl)pyridazin-3-yl)-N-(6-(pyrrolidin-1-yl)pyrazin-2-yl)propanamide]: the values for the IC50 (in the test with Kasumi-1 cells; in test [1]; with Caov-3 cells) were 0.5 to 5 µM, at most 0.05 µM and 0.5 to 5 µM, respectively.
Consider `COc1cc(-c2cn(Cc3ccc(N4CCC[C@@H](NCC(C)C)C4)nn3)nn2)c2cn[nH]c2c1` [Compound 031, (R)-N-isobutyl-1-(6-((4-(6-methoxy-1H-indazol-4-yl)-1H-1,2,3-triazol-1-yl)methyl)pyridazin-3-yl)piperidin-3-amine], for which the figures for the IC50 (with Kasumi-1 cells; in test [1]; in the test with Caov-3 cells) were 0.5 to 5 µM, at most 0.05 µM and 0.5 to 5 µM, respectively.
As for `CCC(c1ccc(N2CCC[C@@H](NCC3CCC3)C2)nn1)n1cc(-c2cncc(OC)c2)nn1` (single isomer, unassigned) [Compound 085], the IC50 was over 5 µM in the test with Kasumi-1 cells, at most 0.05 µM in test [1] and 0.5 to 5 µM in the test on Caov-3 cells.
The corresponding values for `COc1cc(-c2cn(Cc3ccc(N4CCC[C@@H](NCC5CCC5)C4)cc3)nn2)c2cn[nH]c2c1` [Compound 123, (R)-N-(cyclobutylmethyl)-1-(4-((4-(6-methoxy-1H-indazol-4-yl)-1-1,2,3-triazol-1-yl)methyl)phenyl)piperidin-3-amine] are at most 0.5 µM, at most 0.05 µM and at most 0.5 µM.
The corresponding values for `O=C(Nc1cc(=O)n2ccccc2n1)C1(c2ncc(N3CCC[C@@H](NCC4CCC4)C3)cc2F)COC1` [Compound 298, (R)-3-(5-(3-((cyclobutylmethyl)amino)piperidin-1-yl)-3-fluoropyridin-2-yl)-N-(4-oxo-4H-pyrido[1,2-a]pyrimidin-2-yl)oxetane-3-carboxamide] are 0.5 to 5 µM, at most 0.05 µM and 0.5 to 5 µM.
On to `CC(c1ccc(N2CCC[C@@H](NCC3CC3)C2)nn1)n1cc(-c2cncc(C3CC3)c2)nn1` (single isomer, unassigned) [Compound 317], for which the half-inhibitory concentration (IC50) in the test on Kasumi-1 cells was at most 0.5 µM; in test [1], at most 0.05 µM; in the test on Caov-3 cells, at most 0.5 µM.
Consider `CC(n1cc(-c2cncc(N3CC[C@H](F)C3)n2)nn1)n1ccc(N2CCC[C@@H](NCC3CC3)C2)cc1=O` (single isomer, unassigned) [Compound 241], for which the IC50 in the test on Kasumi-1 cells is at most 0.5 µM; in test [1] it was at most 0.05 µM; in the test on Caov-3 cells, at most 0.5 µM.
Consider `CC(c1ccc(N2CCC[C@@H](NCC34CC(F)(C3)C4)C2)cn1)n1cc(-c2cncc(N3CCCC3)n2)nn1` (stereo partly drawn) [Compound 304, (3R)—N-((3-fluorobicyclo[1.1.1]pentan-1-yl)methyl)-1-(6-(1-(4-(6-(pyrrolidin-1-yl)pyrazin-2-yl)-1H-1,2,3-triazol-1-yl)ethyl)pyridin-3-yl)piperidin-3-amine], for which the half-inhibitory concentration (IC50) was at most 0.5 µM with Kasumi-1 cells, at most 0.05 µM in test [1] and at most 0.5 µM in the test with Caov-3 cells.
Regarding `COc1cncc(-c2cn(C(C)c3ccc(N4CCC[C@@H](NCC5CCC5)C4)nn3)nn2)n1` (single isomer, unassigned) [Compound 258], the IC50 in the test on Kasumi-1 cells is 0.5 to 5 µM; in test [1] it was at most 0.05 µM; in the test with Caov-3 cells, 0.5 to 5 µM.
As for `CC(n1cc(-c2cncc(N3CC[C@H](C)C3)n2)nn1)n1ccc(N2CCC[C@@H](NCC3CC3)C2)cc1=O` (single isomer, unassigned) [Compound 240], the half-inhibitory concentration (IC50) was at most 0.5 µM in the test with Kasumi-1 cells, at most 0.05 µM in test [1] and at most 0.5 µM in the test on Caov-3 cells.
On to `CC(c1cnn(-c2cc(N3CCCC3)cnn2)c1)n1ccc(N2CCC[C@@H](NCC3CC3)C2)cc1=O` (single isomer, unassigned) [Compound 219], for which the figures for the half-inhibitory concentration (IC50) (in the test with Kasumi-1 cells; in test [1]; with Caov-3 cells) were 0.5 to 5 µM, at most 0.05 µM and at most 0.5 µM, respectively.
Taken in the same sequence, the figures for `COc1cc(-c2nnn(C(C)n3ccc(N4CCC[C@@H](NCC5CCC5)C4)cc3=O)n2)c2cn[nH]c2c1` (single isomer, unassigned) [Compound 210] were 0.5 to 5 µM, at most 0.05 µM and at most 0.5 µM.
On to `COc1cc(-c2cn(Cc3cnc(N4CCCC(NCC5CCC5)C4)s3)nn2)c2cn[nH]c2c1` (stereo not drawn) [Compound 026, N-(cyclobutylmethyl)-1-(5-((4-(6-methoxy-1H-indazol-4-yl)-1H-1,2,3-triazol-1-yl)methyl)thiazol-2-yl)piperidin-3-amine], for which the half-maximal inhibitory concentration (IC50) in the test on Kasumi-1 cells is 0.5 to 5 µM; in test [1], at most 0.05 µM; in the test with Caov-3 cells, over 5 µM.
Taken in the same sequence, the figures for `CN(C)c1cncc(-c2cn(C3(c4ccc(N5CCC[C@@H](NCC6CC6)C5)cn4)COC3)nn2)c1` [Compound 184, (R)-5-(1-(3-(5-(3-((cyclopropylmethyl)amino)piperidin-1-yl)pyridin-2-yl)oxetan-3-yl)-1H-1,2,3-triazol-4-yl)-N,N-dimethylpyridin-3-amine] were at most 0.5 µM, at most 0.05 µM and at most 0.5 µM.
The corresponding values for `COc1cncc(-c2cc(Cn3ccc(N4CCC[C@@H](NCC5CCC5)C4)cc3=O)n[nH]2)c1` [Compound 095, (R)-4-(3-((cyclobutylmethyl)amino)piperidin-1-yl)-1-((5-(5-methoxypyridin-3-yl)-1H-pyrazol-3-yl)methyl)pyridin-2(1H)-one] are 0.5 to 5 µM, at most 0.05 µM and at most 0.5 µM.
Taken in the same sequence, the figures for `O=C(Nc1cc(=O)n2ccccc2n1)C1(c2ccc(N3CCC[C@@H](NCC4CCC4)C3)nc2)COC1` [Compound 322, (R)-3-(6-(3-((cyclobutylmethyl)amino)piperidin-1-yl)pyridin-3-yl)-N-(4-oxo-4H-pyrido[1,2-a]pyrimidin-2-yl)oxetane-3-carboxamide] were 0.5 to 5 µM, at most 0.05 µM and 0.5 to 5 µM.
`CC(c1cnn(-c2cncc(N3CCCC3)c2)c1)n1ccc(N2CCC[C@@H](NCC3CC3)C2)cc1=O` (single isomer, unassigned) [Compound 253]: the IC50 in the test on Kasumi-1 cells was at most 0.5 µM; in test [1] it was at most 0.05 µM; in the test on Caov-3 cells, at most 0.5 µM.
For `COc1cncc(-n2cc(Cn3ccc(N4CCC[C@@H](NCC5CCC5)C4)cc3=O)cn2)c1` [Compound 107, (R)-4-(3-((cyclobutylmethyl)amino)piperidin-1-yl)-1-((1-(5-methoxypyridin-3-yl)-1H-pyrazol-4-yl)methyl)pyridin-2(1H)-one], the results for the IC50 (in the test with Kasumi-1 cells; in test [1]; in the test on Caov-3 cells) were at most 0.5 µM, at most 0.05 µM and at most 0.5 µM, respectively.
`O=C(Nc1cc(=O)n2ccccc2n1)C1(c2ccc(N3CCC[C@@H](NCC4(C(F)(F)F)CCC4)C3)cn2)COC1` [Compound 337, (R)-N-(4-oxo-4H-pyrido[1,2-a]pyrimidin-2-yl)-3-(5-(3-(((1-(trifluoromethyl)cyclobutyl)methyl)amino)piperidin-1-yl)pyridin-2-yl)oxetane-3-carboxamide]: the IC50 in the test on Kasumi-1 cells was 0.5 to 5 µM; in test [1], at most 0.05 µM; with Caov-3 cells, at most 0.5 µM.

(Values after patent publication US20250002475A1 (EPICS THERAPEUTICS, priority 2023, published 2025).)
